{
  "source": "patent US5439930A",
  "about": "“Biologically active n-acylprolydipeptides having antiamnestic, antihypoxic and anorexigenic effects” (Russian-American Institute for New Drug Development, priority 1992, dated 1995)",
  "key": {"outbred albino male mice": {"system": "outbred albino male mice", "experiment": "Acute habituation of locomotor activity (Optovarimex)", "format": "in vivo", "protocol": "The effect of Compound I on acute habituation of locomotor activity was estimated according to diminution of locomotions during 30 minutes. Experiments were performed on outbred albino male mice (18-22 g) placed in groups of 10 animals in registration cage (Optovarimex, Colomb., USA)."}, "lobectomized rats": {"system": "lobectomized rats", "experiment": "Active avoidance after frontal lobectomy", "format": "in vivo", "conditions": "0.1 mg/kg daily", "protocol": "The impairment of learning and memory was achieved also by frontal lobectomy, which was performed after passive avoidance or active avoidance learning. Compound I (0.1 mg/kg) was administered beginning from the first post-operational day and lasting for 9 days. The testing was performed at 4th and 9th days. […] The frontal lobectomy has as a consequence the decrease of the latency of the entering of the dark compartment; Compound I restored the passive avoidance reaction (Table 8).\nCompound I increased the percentage of the animals performing the active avoidance reaction and the coefficient of the preserving (Table 8)."}, "outbred male mice": {"system": "outbred male mice", "experiment": "Gross behavior and acute toxicity", "format": "in vivo", "protocol": "Compound I was checked for gross behavior and acute toxicity in outbred male mice (18-22 g).\nIn the dose of 1000 mg/kg compound I caused excitement in 50% of animals. In the dose of 5000 mg/kg i.p. compound I caused death in 50% of animals."}, "24-month Wistar rats": {"system": "24-month Wistar rats", "experiment": "Passive avoidance retention in aged rats", "format": "in vivo", "protocol": "The influence of Compound I on age-related mental decline was studied in experiments on 24-month Wistar rats. The substance was administered chronically in the dose of 0.1 mg/kg/day during 24 days, intraperitoneally before the testing and 14 days during testing.\nChronic administration of Compound I facilitated the retention tested 24 hours and especially 14 days after learning in passive avoidance test (Table 11). It is evident from these experiments that Compound I is able to improve amnestic function in the old rats."}, "outbred albino mice": {"system": "outbred albino mice", "experiment": "Hypobaric hypoxia survival (barometric chamber, 11,000 m)", "format": "in vivo", "conditions": "0.5 mg/kg 15 minutes before hypoxia, 1 hour exposition", "protocol": "The protective effect of Compound I in hypoxia was assessed using the barometric chamber by \"elevating\" of the outbred albino mice (18-22 g) to the altitude of 11,000 m at a speed of 1000 m/min. After 1 hour exposition the percentage of surviving mice after 0.9% saline pretreatment was 15%."}, "[1]": {"system": "rat's offspring damaged by prenatal hypoxia", "experiment": "Active avoidance learning of offspring after prenatal hypoxia", "format": "in vivo, rats", "protocol": "(§1) The cognitive impairment in the rat's offspring was provoked by prenatal alcoholization or prenatal hypoxia. Prenatal alcoholization was achieved by peroral administration of 5 g/kg/day (25% solution) ethanol to pregnant female rats during whole pregnancy. To achieve prenatal hypoxia the rats on the 15th day of pregnancy were placed into hypobaric barometric chamber (the \"elevating\" up 8500 m altitude; exposition for 2 hours).\n(§2) The treatment of the offspring was performed from 8th day to 20th day. Compound I was administered in the dose of 0.1 mg/kg/day subcutaneously. The testing was performed on two-month old rats.\nIt has been established that both kinds of damage (alcoholization, hypoxia) caused learning disorders in active avoidance test. Early postnatal administration of Compound I restored learning activity (Table 9)."}, "[2]": {"system": "phenazepam withdrawn male albino rats", "experiment": "Threshold of aggressive behavior during phenazepam withdrawal", "format": "in vivo", "conditions": "0.5 mg/kg i.p.; 24 hours after the last administration of phenazepam", "protocol": "The influence of Compound I on withdrawal syndrome caused by the interruption of chronic administration of benzodiazepine tranquilizer phenazepam (T. A. Voronina et al., In Fenazepam; A. V. Bogatsky, Ed.; Naukova dumka Publishers: Kiev, 1982; pp. 67-169) was studied in experiments on male albino rats weighing 190-200 g at the beginning and 300-350 g at the end of the experiment.\nPhenazepam (2 mg/kg intraperitoneally) or saline (control group of rats) were given once daily for 57 days. The withdrawal syndrome occurred 24-72 hours after the last injection. The withdrawal syndrome in rats consisted in \"anxiogenic-like\" state aggressiveness and accelerated development of kindled seizures caused by pentylentetrazol. Compound I was administered to the withdrawn rats in doses of 0.5 mg/kg intraperitoneally 15 minutes prior to testing.\nThe threshold of the aggressive behavior was determined in the experiment on the rats (R. Tedeshi et al., J. Pharmacol. Exp. Ther., 125, 28-34 (1959)). The paired rats were placed on the electrified floor; the strength of the current, which provokes the fighting, was registered."}, "[3]": {"system": "rat's offspring after prenatal alcoholization", "experiment": "Open field locomotor activity and habituation of offspring after prenatal alcoholization", "format": "in vivo, rats", "protocol": "as §1, §2\nChronic postnatal administration of Compound I restored the normal course of the habituation (Table 10)."}, "[4]": {"system": "damaged stable active avoidance reaction, rats", "experiment": "Conditional active avoidance reflex after damage (simultaneous sound and footshock)", "format": "in vivo", "from_the_text": "The influence of Compound I on the active avoidance learning was studied in shuttle-box test (Ugo Basile, Italy). The conditioned reflex of active avoidance had been developed for 5 days with 50 daily trials for each rat. The learning task consisted in the rats' avoiding of the electric shock applied through the cage floor directly after sound. Rats could avoid the shock by moving into another compartment of the cage, but only while the sound was present (3 sec.).\nIn other experiments, stable active avoidance reaction was damaged by simultaneously switching of sound and electrical footshock for 5 trials. Compound I prevented the impairment of avoidance (Table 6)."}, "[5]": {"system": "undertraining of the passive avoidance reflex, rats", "experiment": "Passive avoidance with undertraining, different regimes of administration", "format": "in vivo", "conditions": "0.5 mg/kg i.p."}},
  "note": "Where a SMILES comes first, the peptide text is derived from it. The star is where a group is joined. PhAc = O=C(Cc1ccccc1)*",
  "data": [
    {"smiles": "CCOC(=O)CNC(=O)[C@@H]1CCCN1C(=O)Cc1ccccc1", "note": "[Compound I, N-phenacetyl-L-prolylglycine ethyl ester] (PhAc-Pro-Gly-OEt)", "values": [
      {"measurement": "Habituation index (motor activity last 5 min / first 5 min of recording)", "setting": "outbred albino male mice; 0.05 mg/kg, 15 min before registration", "value": 30, "unit": "%"},
      {"measurement": "Habituation index", "setting": "outbred albino male mice; 0.1 mg/kg", "value": 10, "unit": "%"},
      {"measurement": "Habituation index", "setting": "outbred albino male mice; 0.5 mg/kg", "value": 15, "unit": "%"},
      {"measurement": "Habituation index", "setting": "outbred albino male mice; 2.5 mg/kg", "value": 25, "unit": "%"},
      {"measurement": "Habituation index", "setting": "outbred albino male mice; 5.0 mg/kg", "value": 27, "unit": "%"},
      {"measurement": "Initial locomotor activity", "setting": "outbred albino male mice; dose range 0.05-5.0 mg/kg", "value": "without changing of initial locomotor activity"},
      {"measurement": "%% of avoiding rats", "setting": "lobectomized rats; 4th day", "value": 42.8, "unit": "%"},
      {"measurement": "Active avoidance test - coeff. of preserving", "setting": "lobectomized rats; 4th day", "value": 28.1, "unit": "%"},
      {"measurement": "%% of avoiding rats", "setting": "lobectomized rats; 9th day", "value": 57.1, "unit": "%"},
      {"measurement": "Active avoidance test - coeff. of preserving", "setting": "lobectomized rats; 9th day", "value": 38.1, "unit": "%"},
      {"measurement": "Stimulating effect of amphetamine", "setting": "outbred male mice; 25 mg/kg", "value": "diminished the stimulating effect of amphetamine"},
      {"measurement": "Rectal temperature", "setting": "outbred male mice; 1-10 mg/kg i.p.", "value": "did not change rectal temperature"},
      {"measurement": "Spontaneous motor activity", "setting": "outbred male mice; 1-10 mg/kg i.p.", "value": "neither stimulated nor depressed the spontaneous motor activity"},
      {"measurement": "Stimulating effect of amphetamine on motor activity", "setting": "outbred male mice; 1-10 mg/kg i.p.", "value": "did not enhance the stimulating effect of amphetamine"},
      {"measurement": "Excitement, % of animals", "setting": "outbred male mice; 1000 mg/kg", "value": 50, "unit": "%"},
      {"measurement": "Death, % of animals", "setting": "outbred male mice; 5000 mg/kg i.p.", "value": 50, "unit": "%"},
      {"measurement": "Lethality at 24 hours", "setting": "outbred male mice; 500-3000 mg/kg i.p.", "value": "did not cause lethality"},
      {"measurement": "General condition (gross behavior)", "setting": "outbred male mice; up to the dose of 500 mg/kg", "value": "did not disturb the general condition"},
      {"measurement": "Motor coordination (rota rod test)", "setting": "outbred male mice; up to the dose of 500 mg/kg", "value": "did not change motor coordination"},
      {"measurement": "Passive avoidance test (latency, sec)", "setting": "24-month Wistar rats; 24 hours after learning", "value": 128, "unit": "s"},
      {"measurement": "Passive avoidance test (latency, sec)", "setting": "24-month Wistar rats; 14 days after learning", "value": 132, "unit": "s"},
      {"measurement": "Percentage of surviving mice", "setting": "outbred albino mice", "value": 43.7, "unit": "%"},
      {"measurement": "Rats with reflex of active avoidance", "setting": "[1]; day 1 of learning, 0.1 mg/kg/day s.c. from 8th to 20th day", "value": 0, "unit": "%"},
      {"measurement": "Rats with reflex of active avoidance", "setting": "[1]; day 2 of learning", "value": 0, "unit": "%"},
      {"measurement": "Rats with reflex of active avoidance", "setting": "[1]; day 3 of learning", "value": 25, "unit": "%"},
      {"measurement": "Rats with reflex of active avoidance", "setting": "[1]; day 4 of learning", "value": 68, "unit": "%"},
      {"measurement": "Rats with reflex of active avoidance", "setting": "[1]; day 5 of learning", "value": 88, "unit": "%"},
      {"measurement": "Aggression Threshold (mA)", "setting": "[2]", "value": "0.92 ± 0.1", "unit": "mA"},
      {"measurement": "Number of horizontal movements", "setting": "[3]; day 1 of observation, chronic postnatal administration", "value": 8.2},
      {"measurement": "Number of horizontal movements", "setting": "[3]; day 5 of observation", "value": 3.7},
      {"measurement": "Coefficient of Habituation", "setting": "[3]; open field", "value": 0.45},
      {"measurement": "Percentage of avoidances during 5 trials", "setting": "[4]; after damage, 1-5th trials", "value": 86.7},
      {"measurement": "Percentage of avoidances during 5 trials", "setting": "[4]; after damage, 6-10th trials", "value": "88.9 ± 4.8"},
      {"measurement": "Percentage of avoidances during 5 trials", "setting": "[4]; after damage, 11-15th trials", "value": 97.8},
      {"measurement": "Percentage of avoidances during 5 trials", "setting": "[4]; before damage", "value": "88.9 ± 4.8"},
      {"measurement": "Mnestic activity (Ma), administration 15 min. before retrieval", "setting": "[5]", "value": 32, "unit": "%"},
      {"measurement": "Mnestic activity (Ma), administration 15 min. before trial", "setting": "[5]", "value": 23, "unit": "%"},
      {"measurement": "Mnestic activity (Ma), administration immediately after trial", "setting": "[5]", "value": 14.0, "unit": "%"}
    ]}
  ]
}
